Test results as given in US20080009448A1, “Peptide Derivative” (priority 2006, published 2008).
Like-named read-outs stand apart in the source and are kept apart here.

Legend:
[1] = tested on: heat nociceptive stimulation; assay: Anti-nociceptive activity test, tail-flick method; type: in vivo, mouse; conditions: for Oral ED50 / activity-peak time after the subcutaneous administration / Subcutaneous ED50 / activity-peak time after the oral administration / ED50: mice; for Oral ED50 / Subcutaneous ED50 / ED50: at activity-peak time, parentheses = 95% confidence limit; for ED50: Mus musculus
Experimental: (1) Experimental animal, male ddy mice (Japan SLC), weighing the body weight in the range of 22 to 25 g, were used for the studies. The animals had been kept under constant conditions (room temperature 22±2° C., humidity 55±5%, 12 hours light-and-dark cycle having light time 9:00 to 21:00 and dark time 21:00 to 9:00) until used for an experiment. The animals were fed the mouse solid diet (F2, Funabashi farm. Funabashi, Japan) with unrestricted tap water intake.
SS8225-01, 02, 03 04, 05, 06, 07 and 08 as examples and SS8225-09, 10, 11 and 12 as comparison examples were used as the administered drugs. […] In addition only Liger solution was administered as an experimental control. The animals were left for 60 minutes in the plastic cage to become familiar to the environment prior to the test in which measured a latent time for each mouse before drug administration in accordance with a tail-flick method noted below. Heat was radiated to a part of each mouse tail which is 2 cm from the end of its tail. Each of heat radiation periods before beginning of tail-flick was measured as a false pain threshold. Mice which responded to the stimulation within 2.5 to 3.5 seconds were pre-selected for the test. Administration solution under one administration condition for one kind of drug was administered to one experimental animal group including 10 mice. After the body weight of each mouse was measured, each volume of the administration solution was adjusted to be 0.1 mL/10 g of mouse body weight and then the solution was administered. The administration methods were two methods of subcutaneous administration (s. c.) and oral administration (p. o.). On subcutaneous administration, the administration solution of 0.1 mL per 10 g of body weight (0.1 mL/10 g) was injected into the back of the mouse using 27 gauge needle. On oral administration, the administration solution of 0.1 mL per 10 g of body weight (0.1 mL/10 g) was administered using an oral sonde.
Heat was radiated to a part of each mouse's tail of respective experimental group, which is 2 cm from the end of its tail, at 15, 30 and 60 minutes after the drug administration according to the preset measurement interval and a latent time until respective mouse swung its tail was measured as a false pain threshold value. The maximum stimulation period (cut-off-time) was set as 10 seconds to minimize the damage to the stimulation part. The anti-nociceptive effect was evaluated quantitatively by calculating % MPE (% of maximum possible effect) according to the following formula. [formula] T1: A latent time until beginning of tail-flick before respective drug administration (seconds) T2: A latent time until beginning of tail-flick after respective drug administration (seconds) Tc: A maximum stimulation period (cut-off-time)
The graphs (FIG. 1, FIG. 3, FIG. 5, FIG. 7, FIG. 9, FIG. 11, FIG. 13, FIG. 15, FIG. 17, FIG. 19, FIG. 21, FIG. 23, FIG. 25, FIG. 27, FIG. 29, FIG. 31, FIG. 33 and FIG. 35) showing a time-course variation of % MPE were created, in which a vertical axis is an average value with a standard error (means ±S. E. M.) obtained by calculation of % MPE of respective animals of 10 mice every administration condition of respective drugs and a horizontal axis is a time after administration. After treating % MPE data of each animal of experimental groups with respective doses and % MPE data of each animal of the experimental group with a control Ringer's solution at the same measurement time every drugs using the two-way layout dispersion analysis (two-way ANOVA), the hazard-ratio of P<0.05 was decided to be a significant difference according to Bonferroni post-test.
A lasting time of anti-nociceptive activity of each drug in the present description is the lasting time of anti-nociceptive activity under the dose condition providing the longest lasting time.
ED50 is represented in the unit of mg/Kg.

male ddy mouse = assay: Evaluation of acute toxicity; conditions: s.c.; for Number of mice died (out of five): within 72 to 96 hours
Experimental: Mice weighing in the range of 22 to 25 g, male ddy mouse, were employed. Number of mice out of five mice in each group that died within 72 to 96 hours recorded.

[2] = tested on: MSU induced knee osteoarthritis pain; assay: MSU induced knee osteoarthritis pain model, hind leg paw-pressure ratio; type: in vivo, rat; parameters: key to AUC of time-course variation of anti-nociceptive activity: AUC of the time course of anti-nociceptive activity as % MPE; conditions: rat, MSU knee model; for ED50: range in parentheses
Experimental: Experimental animal, male SD type rats, weighing the body weight in the range of 170 to 190 g, were used for the studies. The animals had been kept under constant conditions (room temperature 23±1° C., humidity 52±2%, 12 hours light-and-dark cycle having light time 7:00 to 19:00 and dark time 19:00 to 7:00) until used for an experiment. The animals were fed the mouse solid diet (F2, Funabashi farm. Funabashi, Japan) with unrestricted tap water intake, and kept in captivity for at least more than two days in a laboratory.
Any test drugs were dissolved in Ringer's solution (Fuso Yakuhin) to be used.
MSU was suspended with the suspension solution (10% of polyoxyethylene sorbitan mono-oleate (Tween 80: Nakarai Tesk) as 0.1 g per 1 mL. The animal was anesthetized with diethyl ether and after the surface of its left hind leg knee joint was wiped with 70% ethanol cotton, a porous administration of the suspension solution above noted was conducted into the cavity of let hind leg knee joint.
Pressures to both hind leg paw were measured using a paw-pressure measurement apparatus and recorded. Measurement time at respective times was 4.5 seconds. Calculated paw-pressure ratio (ppr) is a value calculated by dividing the pressure on the left hind leg by the pressure on the right hind leg according to the measured pressures on both hind legs.
The anti-nociceptive effect was evaluated quantitatively by calculating % MPE (% of maximum possible effect) according to the following formula. [formula]
In the formula, ppr 0 and ppr 1 are respective paw-pressure ratios on both hind legs before and after administration. ED50 value of anti-nociceptive activity was calculated using GraphPad Prism data-graph processing software version 4.0, San Diego, Calif., USA.
The strength of anti-nociceptive activity was represented by calculating the time-course variation of anti-nociceptive activity AUC using GraphPad Prism noted above.
Paw-pressure was measured twice at 4 hours after administration to provide ppr by calculation and the average of those values was both hind leg paw-pressure ratio before the drug administration. After the measurement of both hind leg paw-pressure before the drug administration, 0.1 mL of Ringer's solution or a test drug in Ringer's solution per 100 g rat body weight was orally administered, and then a paw-pressure was measured once every unit time after the oral administration.
Statistical processing was conducted using GraphPad Prism. After the two-way layout dispersion analysis, the hazard-ratio of P<0.05 was decided to be a significant difference according to Bonferroni post-test. The hazard-ratios were distinguished into less than 5% (P<0.05) and less than 1% (P<0.01) and represented as “*” and “**” in the same manner conducted for the Tail-flick method.

[3] = s.c., doses of 0.5 mg/Kg and 0.25 mg/Kg

## Iminoethyl-[DMT]-[D-Met(O)]-[Phe]-[N-MeLys]-NH2 [SS8225-05]
[1]; p.o.
  Oral ED50: >10 mg/kg
[1]; s.c.
  activity-peak time after the subcutaneous administration: 120 min
  Subcutaneous ED50: 0.10 mg/kg
[1]; s.c., dose of 0.25 mg/Kg
  lasting time of anti-nociceptive activity: 7 h

## Iminoethyl-[DMT]-[D-Met(O)]-[Phe]-[N-MeβAla]-NH2 [SS8225-03]
[1]; p.o.
  Oral ED50: >10 mg/kg
[1]; s.c.
  activity-peak time after the subcutaneous administration: 90 min
  Subcutaneous ED50: 0.08 mg/kg
[1]; [3]
  lasting time of anti-nociceptive activity: 7 h

## [DMT]-[D-Arg]-[Phe]-[N-MeLys]-NH2 [SS8225-09]
[1]; p.o.
  Oral ED50: >10 mg/kg
[1]; p.o., listed as Comparison Example 3
  Oral ED50: over 10 mg/Kg
[1]; s.c.
  activity-peak time after the subcutaneous administration: 90 min
  Subcutaneous ED50: 0.44 mg/kg
[1]; s.c., dose of 1 mg/Kg
  lasting time of anti-nociceptive activity: 5 h

## Iminoethyl-[DMT]-[D-Arg]-[Phe]-[N-MeLys]-OH [SS8225-12]
[1]; p.o.
  Oral ED50: >10 mg/kg
[1]; p.o., listed as Comparison Example 6
  Oral ED50: over 10 mg/Kg
[1]; s.c.
  Subcutaneous ED50: >0.5 mg/kg
[1]; s.c., listed as Comparison Example 6
  Subcutaneous ED50: over 0.5 mg/Kg

## Iminoethyl-[Tyr]-[D-Met(O)]-[Phe]-[N-MeLys]-NHCH3 [SS8225-08]
[1]; p.o.
  Oral ED50: >10 mg/kg
[1]; s.c.
  activity-peak time after the subcutaneous administration: 90 min
  Subcutaneous ED50: 0.1 mg/kg
[1]; s.c., dose of 0.25 mg/Kg
  lasting time of anti-nociceptive activity: 5 h

## [DMT]-[D-Met(O)]-[Phe]-[N-MeLys]-NH2 [SS8225-10]
[1]; p.o.
  Oral ED50: >10 mg/kg
[1]; p.o., listed as Comparison Example 4
  Oral ED50: over 10 mg/Kg
[1]; s.c.
  activity-peak time after the subcutaneous administration: 90 min
  Subcutaneous ED50: 0.28 mg/kg
[1]; s.c., dose of 0.5 mg/Kg
  lasting time of anti-nociceptive activity: 6 h

## Iminoethyl-[DMT]-[D-Arg]-[Phe]-[N-MeβAla]-NH2 [SS8225-01]
[1]; p.o.
  Oral ED50: >10 mg/kg
[1]; s.c.
  activity-peak time after the subcutaneous administration: 90 min
  Subcutaneous ED50: 0.12 mg/kg
[1]; [3]
  lasting time of anti-nociceptive activity: not less than 7 hours

## Iminoethyl-[Tyr]-[D-Arg]-[Phe]-[N-MeβAla]-NH2 [SS8225-02]
[1]; p.o.
  activity-peak time after the oral administration: 240 min
  Oral ED50: 4.0 mg/kg
[1]; s.c.
  activity-peak time after the subcutaneous administration: 90 min
  Subcutaneous ED50: 0.06 mg/kg
[1]; p.o., dose of 10 mg/Kg
  lasting time of anti-nociceptive activity: 10 h
[1]; s.c., dose of 0.125 mg/Kg
  lasting time of anti-nociceptive activity: 6 h

## CC(=N)N[C@@H](Cc1ccc(O)cc1)C(=O)N[C@H](CC[S+](C)[O-])C(=O)N[C@@H](Cc1ccccc1)C(=O)N(C)CCC(N)=O (stereo partly drawn) [SS8225-04, Iminoethyl-[Tyr]-[D-Met(O)]-[Phe]-[N-MeβAla]-NH2]
Male ddy mouse; dosage 6.25 mg/Kg (125 times the ED50)
  Lethality (%): 0%
Male ddy mouse; dosage 6.25 mg/Kg
  Number of mice died (out of five): 0
Male ddy mouse; dosage 25 mg/Kg (500 times the ED50)
  Lethality (%): 0%
Male ddy mouse; dosage 25 mg/Kg
  Number of mice died (out of five): 0
Male ddy mouse; dosage 50 mg/Kg (1000 times the ED50)
  Lethality (%): 20%
Male ddy mouse; dosage 50 mg/Kg
  Number of mice died (out of five): 1
Male ddy mouse; dosage 100 mg/Kg (2000 times the ED50)
  Lethality (%): 20%
Male ddy mouse; dosage 100 mg/Kg
  Number of mice died (out of five): 1
Male ddy mouse; mice
  acute toxicity: satisfactorily low

## Iminoethyl-[Tyr]-[D-Met(O)]-[Phe]-[N-MeLys]-NH2 [SS8225-06]
[1]; p.o.
  activity-peak time after the oral administration: 120 min
  Oral ED50: 6.02 mg/kg
[1]; s.c.
  activity-peak time after the subcutaneous administration: 90 min
  Subcutaneous ED50: 0.18 mg/kg
[1]; p.o., dose of 10 mg/Kg
  lasting time of anti-nociceptive activity: not less than 17 hours
[1]; s.c., dose of 0.25 mg/Kg
  lasting time of anti-nociceptive activity: 5 h

## COc1ccc2c3c1O[C@H]1C(=O)CC[C@@]4(O)[C@@H](C2)N(C)CC[C@]314 [Oxycodone]
[1]; po, p.o., read-out: Oral ED50
  ED50: 7.82 mg/kg
[1]; sc, s.c., read-out: Subcutaneous ED50
  ED50: 1.21 mg/kg
[1]; p.o.
  activity-peak time after the oral administration: 45 min
[1]; s.c.
  activity-peak time after the subcutaneous administration: 30 min
[1]; p.o., dose of 20 mg/Kg
  lasting time of anti-nociceptive activity: 5 h
[1]; s.c., dose of 1.75 mg/Kg
  lasting time of anti-nociceptive activity: 1.5 h
[2]; oral
  activity lasting-time, times longer than for morphine: 0.4 times
  activity peak: 60 min
[2]; oral 7.5 mg/kg
  AUC of time-course variation of anti-nociceptive activity: 2525
[2]; oral 15 mg/kg
  AUC of time-course variation of anti-nociceptive activity: 6363
[2]; oral 30 mg/kg
  AUC of time-course variation of anti-nociceptive activity: 10562
[2]; oral, %MPE, read-out: ED50 value at activity peak
  ED50: 10.3 mg/kg
[2]; oral, from ED50 of AUCs
  anti-nociceptive activities, times stronger than for morphine: approximately 1.8 times
[2]; oral, read-out: ED50 of AUCs
  ED50: 49.4 mg/kg
[2]; oral, stated after ED50 at activity peak
  anti-nociceptive activity lasting-times, times longer than for morphine: 3.6 times
[2]; orally administered
  activity lasting-time: 120 min

## Iminoethyl-[Tyr]-[D-Met(O)]-[Phe]-[N-MeLys]-OH [SS8225-11]
[1]; p.o.
  Oral ED50: >10 mg/kg
[1]; p.o., listed as Comparison Example 5
  Oral ED50: over 10 mg/Kg
[1]; s.c.
  Subcutaneous ED50: >0.5 mg/kg
[1]; s.c., listed as Comparison Example 5
  Subcutaneous ED50: over 0.5 mg/Kg
